{"source": "paper PMC5988656", "about": "“Phase I studies of AZD1208, a proviral integration Moloney virus kinase inhibitor in solid and haematological cancers” (British Journal of Cancer, 2018)", "key": {"[1]": {"experiment": "AML dose-escalation study: pharmacokinetics (plasma, urine)", "type": "in vivo, human", "settings": "for Gmean plasma concentration of AZD1208 (± SD): Cycle 1, Day 14", "protocol": "The schedules for collection of blood and urine samples for PK analyses in each cohort in both studies are described in Supplementary Table 1. When necessary for clinical response assessment in the AML study, a bone marrow sample for PK analysis was collected at Cycle 1, Day 28.\nThe concentration of AZD1208 in plasma and urine was determined by Covance, on behalf of Clinical Bioanalysis Alliance at AstraZeneca R&D, using a bioanalytical method. A volume of 0.05 ml of K2EDTA human plasma sample was extracted by liquid–liquid extraction using 0.7 ml of methyl tert-butyl ether. Approximately 100 µl of the supernatant was transferred, evaporated to dryness and reconstituted with 350 µl of 1:1 methanol:water, and a 5 µl injection was made to the high-performance liquid chromatography (HPLC) column. HPLC separations were performed on a Phenomenex LUNA C18 (50 × 2 mm, 5 µm) column using a mobile phase of 0.1% formic acid in water (A) and 0.1% formic acid in acetonitrile (B) at a flow rate of 0.6 ml/min and a column temperature of 40 °C. AZD1208-D5 was used as the internal standard. Detection was performed in a Sciex API4000 mass spectrometer, in a positive electrospray ionisation mode, using multiple reaction monitoring detection (AZD1208: 380.0–>248.1; AZD1208-D5: 385.0–>253.1)."}, "[2]": {"system": "CYP3A4", "experiment": "CYP3A4 activity assessed by 4-β-hydroxycholesterol levels, solid tumour study", "type": "in vivo, human", "settings": "for 4-β-hydroxycholesterol Day 15 concentration / 4-β-hydroxycholesterol ratio (Day 15/Day 1): individual subjects", "protocol": "In the solid tumour study, blood samples for 4β-hydroxycholesterol analysis were collected pre-dose at Cycle 0, Day 1; Cycle 1 (Day 8 and 15); and Cycle 2, Day 15.\nThe activity of CYP3A4 was assessed by analysing 4-β-hydroxycholesterol levels in samples collected from five patients at AZD1208 doses of 700 or 800 mg."}}, "note": "Several values for one entry are separate records, joined by “and”; a condition that tells them apart may be missing. Equal values may be shown once.", "data": [{"smiles": "N[C@@H]1CCCN(c2c(/C=C3\\SC(=O)NC3=O)cccc2-c2ccccc2)C1", "note": "[AZD1208]", "values": [{"measurement": "Gmean plasma concentration of AZD1208 (± SD)", "setting": "[1]; 1 h post-dose, 120 mg, n=3", "value": "2050.2 (1514.6, 2775.2) ng ml"}, {"measurement": "Gmean plasma concentration of AZD1208 (± SD)", "setting": "[1]; 1 h post-dose, 480 mg, n=6", "value": "4956.2 (1164.7, 21 090.8) ng ml"}, {"measurement": "Gmean plasma concentration of AZD1208 (± SD)", "setting": "[1]; 1 h post-dose, 700 mg, n=7", "value": "2013.8 (1004.8, 4035.8) ng ml"}, {"measurement": "Gmean plasma concentration of AZD1208 (± SD)", "setting": "[1]; 1 h post-dose, 900 mg, n=9", "value": "1952.5 (1166.1, 3269.1) ng ml"}, {"measurement": "Gmean plasma concentration of AZD1208 (± SD)", "setting": "[1]; 1.5 h post-dose, 120 mg, n=3", "value": "2375.1 (1849.1, 3050.7) ng ml"}, {"measurement": "Gmean plasma concentration of AZD1208 (± SD)", "setting": "[1]; 1.5 h post-dose, 240 mg, n=6", "value": "5142.8 (4058.6, 6516.6) ng ml"}, {"measurement": "Gmean plasma concentration of AZD1208 (± SD)", "setting": "[1]; 1.5 h post-dose, 480 mg, n=6", "value": "5384.2 (2123.1, 13 654.8) ng ml"}, {"measurement": "Gmean plasma concentration of AZD1208 (± SD)", "setting": "[1]; 1.5 h post-dose, 700 mg, n=7", "value": "3963.7 (2236.9, 7023.5) ng ml"}, {"measurement": "Gmean plasma concentration of AZD1208 (± SD)", "setting": "[1]; 1.5 h post-dose, 900 mg, n=9", "value": "2747.1 (1719.7, 4388.3) ng ml"}, {"measurement": "Gmean plasma concentration of AZD1208 (± SD)", "setting": "[1]; 2 h post-dose, 120 mg, n=3", "value": "2216.3 (1388.5, 3537.7) ng ml"}, {"measurement": "Gmean plasma concentration of AZD1208 (± SD)", "setting": "[1]; 2 h post-dose, 240 mg, n=6", "value": "6153.8 (5277.1, 7175.8) ng ml"}, {"measurement": "Gmean plasma concentration of AZD1208 (± SD)", "setting": "[1]; 2 h post-dose, 480 mg, n=6", "value": "5818.8 (2320.7, 14 589.5) ng ml"}, {"measurement": "Gmean plasma concentration of AZD1208 (± SD)", "setting": "[1]; 2 h post-dose, 700 mg, n=7", "value": "4388.1 (2945.6, 6536.9) ng ml"}, {"measurement": "Gmean plasma concentration of AZD1208 (± SD)", "setting": "[1]; 2 h post-dose, 900 mg, n=9", "value": "3107.5 (1803.0, 5356.1) ng ml"}, {"measurement": "Gmean plasma concentration of AZD1208 (± SD)", "setting": "[1]; 3 h post-dose, 120 mg, n=3", "value": "2052.0 (1181.0, 3565.2) ng ml"}, {"measurement": "Gmean plasma concentration of AZD1208 (± SD)", "setting": "[1]; 3 h post-dose, 240 mg, n=6", "value": "3687.8 (1657.8, 8203.5) ng ml"}, {"measurement": "Gmean plasma concentration of AZD1208 (± SD)", "setting": "[1]; 3 h post-dose, 480 mg, n=6", "value": "5515.9 (1885.1, 16 139.7) ng ml"}, {"measurement": "Gmean plasma concentration of AZD1208 (± SD)", "setting": "[1]; 3 h post-dose, 700 mg, n=7", "value": "5521.1 (2560.5, 11 905.2) ng ml"}, {"measurement": "Gmean plasma concentration of AZD1208 (± SD)", "setting": "[1]; 3 h post-dose, 900 mg, n=9", "value": "3179.0 (1505.2, 6714.4) ng ml"}, {"measurement": "Gmean plasma concentration of AZD1208 (± SD)", "setting": "[1]; 6 h post-dose, 120 mg, n=3", "value": "1761.5 (1019.2, 3044.5) ng ml"}, {"measurement": "Gmean plasma concentration of AZD1208 (± SD)", "setting": "[1]; 6 h post-dose, 240 mg, n=6", "value": "3196.3 (1504.2, 6791.5) ng ml"}, {"measurement": "Gmean plasma concentration of AZD1208 (± SD)", "setting": "[1]; 6 h post-dose, 480 mg, n=6", "value": "5420.2 (1806.5, 16 262.9) ng ml"}, {"measurement": "Gmean plasma concentration of AZD1208 (± SD)", "setting": "[1]; 6 h post-dose, 700 mg, n=7", "value": "4452.1 (2126.6, 9320.8) ng ml"}, {"measurement": "Gmean plasma concentration of AZD1208 (± SD)", "setting": "[1]; 6 h post-dose, 900 mg, n=9", "value": "2320.5 (896.7, 6004.8) ng ml"}, {"measurement": "Gmean plasma concentration of AZD1208 (± SD)", "setting": "[1]; 8 h post-dose, 120 mg, n=3", "value": "1700.4 (974.4, 2967.5) ng ml"}, {"measurement": "Gmean plasma concentration of AZD1208 (± SD)", "setting": "[1]; 8 h post-dose, 240 mg, n=6", "value": "2735.5 (1203.4, 6218.4) ng ml"}, {"measurement": "Gmean plasma concentration of AZD1208 (± SD)", "setting": "[1]; 8 h post-dose, 480 mg, n=6", "value": "5248.1 (1804.2, 15 265.9) ng ml"}, {"measurement": "Gmean plasma concentration of AZD1208 (± SD)", "setting": "[1]; 8 h post-dose, 700 mg, n=7", "value": "4064.8 (2043.6, 8085.1) ng ml"}, {"measurement": "Gmean plasma concentration of AZD1208 (± SD)", "setting": "[1]; 8 h post-dose, 900 mg, n=9", "value": "2608.4 (2223.6, 3059.7) ng ml"}, {"measurement": "Gmean plasma concentration of AZD1208 (± SD)", "setting": "[1]; 24 h post-dose, 120 mg, n=3", "value": "1248.3 (485.6, 3208.8) ng ml"}, {"measurement": "Gmean plasma concentration of AZD1208 (± SD)", "setting": "[1]; 24 h post-dose, 240 mg, n=6", "value": "1818.9 (580.7, 5697.5) ng ml"}, {"measurement": "Gmean plasma concentration of AZD1208 (± SD)", "setting": "[1]; 24 h post-dose, 480 mg, n=6", "value": "3154.5 (406.4, 24 485.6) ng ml"}, {"measurement": "Gmean plasma concentration of AZD1208 (± SD)", "setting": "[1]; 24 h post-dose, 700 mg, n=7", "value": "2302.0 (643.6, 8233.0) ng ml"}, {"measurement": "Gmean plasma concentration of AZD1208 (± SD)", "setting": "[1]; 24 h post-dose, 900 mg, n=9", "value": "593.0 (174.0, 2021.0) ng ml"}, {"measurement": "Gmean plasma concentration of AZD1208 (± SD)", "setting": "[1]; pre-dose, 120 mg, n=3", "value": "1163.1 (335.5, 4032.0) ng ml"}, {"measurement": "Gmean plasma concentration of AZD1208 (± SD)", "setting": "[1]; pre-dose, 240 mg, n=6", "value": "2106.9 (693.2, 6845.2) ng ml"}, {"measurement": "Gmean plasma concentration of AZD1208 (± SD)", "setting": "[1]; pre-dose, 480 mg, n=6", "value": "2302.9 (541.6, 9792.3) ng ml"}, {"measurement": "Gmean plasma concentration of AZD1208 (± SD)", "setting": "[1]; pre-dose, 700 mg, n=7", "value": "2513.6 (1057.2, 5976.4) ng ml"}, {"measurement": "Gmean plasma concentration of AZD1208 (± SD)", "setting": "[1]; pre-dose, 900 mg, n=9", "value": "463.1 (444.2, 482.7) ng ml"}, {"measurement": "Patients with marked accumulation (>3-fold)", "setting": "[1]; across the doses, 7/16 patients", "value": 44, "unit": "%"}, {"measurement": "Median time to maximum plasma concentration (Tmax)", "setting": "[1]; after a single dose", "value": "~ 3 h"}, {"measurement": "Differences in AZD1208 concentrations between individuals within the same cohort", "setting": "[1]; after multiple doses", "value": "up to 10 fold"}, {"measurement": "Dose proportionality of Cmax and AUC0–24", "setting": "[1]; following multiple doses", "value": "less than dose proportional"}, {"measurement": "Accumulation ratio", "setting": "[1]; individual patients at 480 mg", "value": "3.6 and 0.36"}, {"measurement": "Administered dose eliminated unchanged in urine", "setting": "[1]; within 24 h, all cohorts", "value": "< 1", "unit": "%"}, {"measurement": "Increase in 4-β-hydroxycholesterol levels on Day 15 compared with Day 1", "setting": "[2]; five patients, 700 or 800 mg", "value": "~ 4 fold"}, {"measurement": "4-β-hydroxycholesterol Day 15 concentration, Gmean (CV%)", "setting": "[2]; five subjects, 700 or 800 mg", "value": "114.1 (29.2) ng ml"}, {"measurement": "4-β-hydroxycholesterol ratio (Day 15/Day 1), Gmean (CV%)", "setting": "[2]; five subjects, 700 or 800 mg", "value": "4.38 (23.9)"}, {"measurement": "4-β-hydroxycholesterol Day 15 concentration", "setting": "[2]; dose 700 mg", "value": "85.5 ng·mL and 91.9 ng·mL and 175 ng·mL"}, {"measurement": "4-β-hydroxycholesterol ratio (Day 15/Day 1)", "setting": "[2]; dose 700 mg", "value": "3.41 and 5.93 and 4.90"}, {"measurement": "4-β-hydroxycholesterol Day 15 concentration", "setting": "[2]; dose 800 mg", "value": "128 ng·mL and 110 ng·mL"}, {"measurement": "4-β-hydroxycholesterol ratio (Day 15/Day 1)", "setting": "[2]; dose 800 mg", "value": "4.67 and 3.49"}, {"measurement": "CYP3A4 activity", "setting": "[2]; multiple dosing, 700 or 800 mg", "value": "induced"}]}]}
